Source: PMC12304301, “The Drosophila DEG/ENaC PPK12 is a Na^+ leak channel with a low Na^+ affinity” (Scientific Reports, 2025)

Key:
PPK12 [1] = molecular target: T1, PPK12 (Drosophila melanogaster, UniProt Q9W250); assay: two-electrode voltage clamp of Xenopus oocytes, block of NMDG-sensitive constitutive current; assay type: cell-based
T1 construct: cRNA expressed alone in Xenopus laevis oocytes; DEG/ENaC family members are trimers
T1 sequence (Q9W250 1-569): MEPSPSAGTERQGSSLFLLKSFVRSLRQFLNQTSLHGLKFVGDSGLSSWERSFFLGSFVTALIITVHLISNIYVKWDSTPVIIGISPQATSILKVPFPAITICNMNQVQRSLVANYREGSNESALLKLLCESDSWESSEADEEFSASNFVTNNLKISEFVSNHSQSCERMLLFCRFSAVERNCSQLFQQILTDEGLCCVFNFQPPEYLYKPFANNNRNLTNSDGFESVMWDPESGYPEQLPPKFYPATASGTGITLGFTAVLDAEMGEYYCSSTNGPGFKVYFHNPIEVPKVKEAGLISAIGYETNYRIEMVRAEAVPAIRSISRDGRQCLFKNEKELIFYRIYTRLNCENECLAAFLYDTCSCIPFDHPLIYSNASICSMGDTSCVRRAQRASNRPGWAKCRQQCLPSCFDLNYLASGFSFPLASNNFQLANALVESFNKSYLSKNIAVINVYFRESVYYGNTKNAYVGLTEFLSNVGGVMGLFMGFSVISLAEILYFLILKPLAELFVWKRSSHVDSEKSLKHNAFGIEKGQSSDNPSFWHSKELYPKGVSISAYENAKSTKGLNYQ

PPK12 [2] = molecular target: T1, PPK12; assay: two-electrode voltage clamp of Xenopus oocytes, inhibition of total constitutive current; assay type: cell-based; conditions: 140 mM NaCl bath, pH 7.4, -70 mV; only part of current carried by PPK12

Compound | IC50 (PPK12 [1]) | % inhibition at 100 μM (PPK12 [2])
N=C(N)NC(=O)c1nc(Cl)c(N)nc1N [amiloride] | 220 ± 20 µM | 
N=C(N)c1ccc(/N=N/Nc2ccc(C(=N)N)cc2)cc1 [diminazene] | 110 ± 10 µM | 
NC(=NC(=O)c1nc(Cl)c(N)nc1N)NCc1ccccc1 [benzamil] |  | amiloride, its analog benzamil, and diminazene–partially and reversibly inhibited constitutive currents in PPK12-expressing oocytes
